Results on seven molecules are retold here after US20050282755A1, “Compositions having antimicrobial activity and uses thereof” (priority 2004, published 2005).

Common to all, as to format: cell-based
Experiment [1] deals with Staphylococcus aureus ATCC 29213. Kind of experiment: MIC, NCCLS M7-A6 broth microdilution, cation-adjusted Mueller Hinton broth (Table 9, no superscript). The conditions noted are these: ATCC 29213. Put shortly:
(§1)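 Broth microdilution in cation-adjusted Mueller Hinton broth, log-phase inoculum giving 5×10^5 to 1×10^6 CFU/milliliter per well. Overnight incubation at 37° C. MIC taken as lowest peptide concentration with no visible turbidity versus a no-peptide control.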
In general terms: Dilution methods test growth across graded concentrations, often in twofold steps.

The subject of experiment [2] is Escherichia coli ATCC 25922. Kind of experiment: MIC, NCCLS M7-A6 broth microdilution (Table 9, no superscript). Conditions: ATCC 25922. Put shortly:
as §1

Experiment [3] deals with Pseudomonas aeruginosa ATCC 27853. The description is as above. Conditions: ATCC 27853. In short, it runs like this:
as §1

Another experiment deals with Salmonella dublin (Lane). The experiment is described as above. In short, it runs like this: as §1
The subject of experiment [4] is Staphylococcus epidermidis ATCC 12228. The experiment is described as above. The conditions noted are these: ATCC 12228. In short, it runs like this: as §1
Experiment [5] has as its system Propionibacterium acnes ATCC 6919. Kind of experiment: MIC, agar dilution method NCCLS M11-A6, Brucella agar, anaerobic (Table 9, superscript c). The conditions noted are these: ATCC 6919. Put shortly:
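MIC taken as the lowest peptide level giving no colonies on the plate. Plates were inoculated to 1.5×10^8 CFU/milliliter, then kept anaerobically at 37° C. for 48-96 hours; method follows NCCLS M11-A6.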
On the technique in general: In agar dilution the substance is mixed into plates at graded concentrations.

For experiment [6], the system named is Candida albicans ATCC 18804. Kind of experiment: MIC in yeasts, NCCLS M27-A2 broth microdilution, RPMI 1640 (Table 9, letter e). The conditions noted are these: ATCC 18804. In short, it runs like this:
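Plates incubated 24 to 48 hours at 37° C, with yeast seeded at 0.5×10^3–2.5×10^3 CFU/milliliter final in RPMI 1640 (glutamine, phenol red indicator). MIC was read as the lowest peptide concentration showing no visible growth.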

The structures appear in SMILES notation. Converted amounts (≈) assume the structure as drawn. Starred links: 1 amine or outer side, 2 acyl side, 3 side chain; linkers in the order of their positions; H or OH if unused. Non-standard residues stand in square brackets, D forms with d. Residues, ends and D or L forms follow the SMILES beside them. *: point of attachment. Ethylenediamine = C(CN[*:2])N[*:1]; Lauroyl = CCCCCCCCCCCC(=O)*; Hexanoyl = CCCCCC(=O)*

Take `CCCCCCCCCCCC(=O)N[C@@H](CCCNC(=N)N)C(=O)N[C@@H](CO)C(=O)N[C@@H](CCCNC(=N)N)C(=O)N[C@@H](Cc1c[nH]c2ccccc12)C(=O)N[C@@H](CCCNC(=N)N)C(=O)N[C@@H](CC(=O)O)C(=O)N[C@H](C(=O)N[C@@H](C)C(=O)N[C@@H](CCCNC(=N)N)C(=O)N[C@@H](CC(N)=O)C(=O)N[C@@H](Cc1c[nH]c2ccccc12)C(=O)N[C@@H](CCSC)C(=O)N[C@@H](CCCNC(=N)N)C(N)=O)C(C)C` [Peptide 139, Lauryl-RSRWRDVARNWMR-NH2] (Lauroyl-RSRWRDVARNWMR-NH2): the “MIC S. aureus” value in experiment [1] was 4 µg/mL (≈ 2.03 µM). In experiment [2], the “MIC E. coli” value was 8 µg/mL (≈ 4.06 µM). Also, the “MIC P. aeruginosa” value in experiment [3] was 8 µg/mL (≈ 4.06 µM). The “MIC S. dublin” value against Salmonella dublin (Lane) is 8 µg/mL (≈ 4.06 µM). Moreover, the “MIC S. epidermidis” value in experiment [4] is 2 µg/mL (≈ 1.02 µM). Further, the “MIC P. acnes” value in experiment [5] turned out to be 16c ug/mL. For the same molecule, in experiment [6], the “MIC C. albicans” value was 8e ug/mL.

For the molecule `CCCCCCCCCCCC(=O)N[C@@H](CCCNC(=N)N)C(=O)N[C@@H](CO)C(=O)N[C@@H](CCCNC(=N)N)C(=O)N[C@@H](Cc1c[nH]c2ccccc12)C(=O)N[C@@H](CCCNC(=N)N)C(=O)N[C@@H](CC(=O)O)C(=O)N[C@@H](Cc1c[nH]c2ccccc12)C(=O)N[C@@H](C)C(=O)N[C@@H](CCCNC(=N)N)C(=O)N[C@@H](CC(N)=O)C(=O)N[C@@H](Cc1ccccc1)C(=O)N[C@@H](CCSC)C(=O)N[C@@H](CCCNC(=N)N)C(N)=O` [Peptide 140, Lauryl-RSRWRDWARNFMR-NH2] (Lauroyl-RSRWRDWARNFMR-NH2), the “MIC S. aureus” value in experiment [1] worked out at 2 µg/mL (≈ 0.991 µM). Besides, the “MIC E. coli” value in experiment [2] stood at 4 µg/mL (≈ 1.98 µM). Moreover, the “MIC P. aeruginosa” value in experiment [3] turned out to be 8 µg/mL (≈ 3.96 µM). Further, the “MIC S. dublin” value in the experiment with Salmonella dublin (Lane) turned out to be 4 µg/mL (≈ 1.98 µM). Also, in experiment [4], the “MIC S. epidermidis” value was 2 µg/mL (≈ 0.991 µM). In addition, the “MIC P. acnes” value in experiment [5] is on record as 16c ug/mL. Besides, the “MIC C. albicans” value in experiment [6] is reported as 2e ug/mL.

`CCCCCCCCCCCC(=O)N[C@@H](CCCNC(=N)N)C(=O)N[C@@H](CO)C(=O)N[C@@H](CCCNC(=N)N)C(=O)N[C@@H](Cc1c[nH]c2ccccc12)C(=O)N[C@@H](CCCNC(=N)N)C(=O)N[C@@H](CC(=O)O)C(=O)N[C@H](C(=O)N[C@@H](C)C(=O)N[C@@H](CCCNC(=N)N)C(=O)N[C@@H](CC(N)=O)C(=O)N[C@@H](Cc1ccccc1)C(=O)N[C@@H](CCSC)C(=O)N[C@@H](CCCNC(=N)N)C(=O)N[C@@H](Cc1c[nH]c2ccccc12)C(N)=O)C(C)C` [Peptide 141, Lauryl-RSRWRDVARNFMRW-NH2] (Lauroyl-RSRWRDVARNFMRW-NH2): the “MIC S. aureus” value in experiment [1] was 16 µg/mL (≈ 7.56 µM). The “MIC E. coli” value in experiment [2] was 16 µg/mL (≈ 7.56 µM). The “MIC P. aeruginosa” value in experiment [3] is >64 µg/mL. Also, in the experiment on Salmonella dublin (Lane), the “MIC S. dublin” value worked out at 16 µg/mL (≈ 7.56 µM). In experiment [4], the “MIC S. epidermidis” value is 4 µg/mL (≈ 1.89 µM). Moreover, the “MIC P. acnes” value in experiment [5] came to 32c ug/mL. Further, the “MIC C. albicans” value in experiment [6] is 2e ug/mL.

On to `CCCCCCCCCCCC(=O)N[C@@H](CCCNC(=N)N)C(=O)N[C@@H](CO)C(=O)N[C@@H](CCCNC(=N)N)C(=O)N[C@@H](Cc1c[nH]c2ccccc12)C(=O)N[C@@H](CCCNC(=N)N)C(=O)N[C@@H](CC(=O)O)C(=O)N[C@@H](Cc1c[nH]c2ccccc12)C(=O)N[C@@H](C)C(=O)N[C@@H](CCCNC(=N)N)C(=O)N[C@@H](CC(N)=O)C(=O)N[C@@H](Cc1c[nH]c2ccccc12)C(=O)N[C@@H](CCSC)C(=O)N[C@@H](CCCNC(=N)N)C(N)=O` [Peptide 143, Lauryl-RSRWRDWARNWMR-NH2] (Lauroyl-RSRWRDWARNWMR-NH2), for which the “MIC S. aureus” value in experiment [1] stood at 4 µg/mL (≈ 1.94 µM). Further, the “MIC E. coli” value in experiment [2] came to 4 µg/mL (≈ 1.94 µM). For the same molecule, the “MIC P. aeruginosa” value in experiment [3] is 16 µg/mL (≈ 7.78 µM). Besides, the “MIC S. dublin” value against Salmonella dublin (Lane) was determined as 4 µg/mL (≈ 1.94 µM). Moreover, the “MIC S. epidermidis” value in experiment [4] was 2 µg/mL (≈ 0.972 µM). Further, in experiment [5], the “MIC P. acnes” value was 2c ug/mL. For the same molecule, the “MIC C. albicans” value in experiment [6] worked out at 4e ug/mL.

For the molecule `CCCCCCCCCCCC(=O)N[C@@H](CCCNC(=N)N)C(=O)N[C@H](CO)C(=O)N[C@@H](CCCNC(=N)N)C(=O)N[C@H](Cc1c[nH]c2ccccc12)C(=O)N[C@@H](CCCNC(=N)N)C(=O)N[C@H](CC(=O)O)C(=O)N[C@@H](C(=O)N[C@H](C)C(=O)N[C@@H](CCCNC(=N)N)C(=O)N[C@H](CC(N)=O)C(=O)N[C@H](Cc1ccccc1)C(=O)N[C@H](CCSC)C(=O)N[C@@H](CCCNC(=N)N)C(N)=O)C(C)C` [Peptide 158, Lauryl-RsRwRdvaRnfmR-NH2] (Lauroyl-R[dS]R[dW]R[dD][dV][dA]R[dN][dF][dM]R-NH2), the “MIC S. aureus” value in experiment [1] came out at 8 µg/mL (≈ 4.14 µM). Moreover, the “MIC E. coli” value in experiment [2] stood at 16 µg/mL (≈ 8.28 µM). In experiment [3], the “MIC P. aeruginosa” value amounted to 4 µg/mL (≈ 2.07 µM). Moreover, the “MIC S. dublin” value against Salmonella dublin (Lane) was 16 µg/mL (≈ 8.28 µM). For the same molecule, in experiment [4], the “MIC S. epidermidis” value was found to be 2 µg/mL (≈ 1.04 µM). Also, in experiment [5], the “MIC P. acnes” value amounted to 8c ug/mL. Besides, the “MIC C. albicans” value in experiment [6] came to 32e ug/mL.

Turning to `CCCCCC(=O)NCCNC(=O)[C@H](CCCNC(=N)N)NC(=O)[C@H](CC(C)C)NC(=O)[C@H](Cc1ccccc1)NC(=O)[C@H](CC(N)=O)NC(=O)[C@H](CCCNC(=N)N)NC(=O)[C@H](C)NC(=O)[C@@H](NC(=O)[C@H](CC(=O)O)NC(=O)[C@H](CCCNC(=N)N)NC(=O)[C@H](Cc1c[nH]c2ccccc12)NC(=O)[C@H](CCCNC(=N)N)NC(=O)[C@H](CO)NC(=O)[C@@H](N)CCCNC(=N)N)C(C)C` [Peptide 168, H2N-RSRWRDVARNFLR-Ethylamidohexanyl] (H-RSRWRDVARNFLR-{Ethylenediamine-Hexanoyl}; C-terminus assumed), the “MIC S. aureus” value in experiment [1] was 16 µg/mL (≈ 8.55 µM). In addition, the “MIC E. coli” value in experiment [2] is 2 µg/mL (≈ 1.07 µM). In addition, the “MIC P. aeruginosa” value in experiment [3] was determined as 32 µg/mL (≈ 17.1 µM). In the experiment on Salmonella dublin (Lane), the “MIC S. dublin” value is 16 µg/mL (≈ 8.55 µM). In addition, the “MIC S. epidermidis” value in experiment [4] is 1 µg/mL (≈ 0.534 µM). Moreover, the “MIC P. acnes” value in experiment [5] was 64c ug/mL. Moreover, the “MIC C. albicans” value in experiment [6] was 32e ug/mL.

With `CCCCCC(=O)NCCNC(=O)[C@H](CCCNC(=N)N)NC(=O)[C@H](CCSC)NC(=O)[C@H](Cc1ccccc1)NC(=O)[C@H](CC(N)=O)NC(=O)[C@H](CCCNC(=N)N)NC(=O)[C@H](C)NC(=O)[C@@H](NC(=O)[C@H](CC(=O)O)NC(=O)[C@H](CCCNC(=N)N)NC(=O)[C@H](Cc1c[nH]c2ccccc12)NC(=O)[C@H](CCCNC(=N)N)NC(=O)[C@H](CO)NC(=O)[C@@H](N)CCCNC(=N)N)C(C)C` [Peptide 173, H2N-RSRWRDVARNFMR-Ethylamidohexanyl] (H-RSRWRDVARNFMR-{Ethylenediamine-Hexanoyl}; C-terminus assumed), the “MIC S. aureus” value in experiment [1] turned out to be 16 µg/mL (≈ 8.46 µM). Moreover, in experiment [2], the “MIC E. coli” value amounted to 8 µg/mL (≈ 4.23 µM). In experiment [3], the “MIC P. aeruginosa” value was found to be 16 µg/mL (≈ 8.46 µM). Also, the “MIC S. dublin” value against Salmonella dublin (Lane) worked out at 32 µg/mL (≈ 16.9 µM). Further, the “MIC S. epidermidis” value in experiment [4] came to 2 µg/mL (≈ 1.06 µM). The “MIC P. acnes” value in experiment [5] is listed as >64c ug/mL. Moreover, the “MIC C. albicans” value in experiment [6] is 64e ug/mL.
